Source: a compilation of properties of binary mixtures (doi:10.1016/j.jct.2016.06.015)

Experiment: xn = mol fraction of the nth substance listed
Conditions: 100 kPa

Compound `CC[n+]1ccn(C)c1.F[B-](F)(F)F` + C1COCCO1 has a viscosity (293.15 K, x2 = 0.1664) of 35.8 mPa·s, a viscosity (293.15 K, x2 = 0.2149) of 32.1 mPa·s and a viscosity (293.15 K, x2 = 0.3162) of 24.9 mPa·s. For the same compound, the viscosity (293.15 K, x2 = 0.3591) was 22.2 mPa·s, the viscosity (293.15 K, x2 = 0.5077) was 13.8 mPa·s and the viscosity (293.15 K, x2 = 0.5453) was 12.2 mPa·s. The viscosity (293.15 K, x2 = 0.6708) was 7.1 mPa·s, the viscosity (298.15 K, x2 = 0) was 41.5 mPa·s and the viscosity (298.15 K, x2 = 0.1664) was 29.8 mPa·s. For the same compound, the viscosity (298.15 K, x2 = 0.3162) was 21 mPa·s, the viscosity (298.15 K, x2 = 0.3591) was 18.8 mPa·s and the viscosity (298.15 K, x2 = 0.5077) was 12 mPa·s. The viscosity (298.15 K, x2 = 0.5453) was 10.6 mPa·s, the viscosity (298.15 K, x2 = 0.6708) was 6.42 mPa·s and the viscosity (303.15 K, x2 = 0.3162) was 18.1 mPa·s. For the same compound, the viscosity (303.15 K, x2 = 0.3591) was 16.2 mPa·s, the viscosity (303.15 K, x2 = 0.5077) was 10.5 mPa·s and the viscosity (303.15 K, x2 = 0.6708) was 5.51 mPa·s. For the same compound, the viscosity (313.15 K, x2 = 0) was 24.8 mPa·s, the viscosity (313.15 K, x2 = 0.1664) was 18.5 mPa·s and the viscosity (313.15 K, x2 = 0.3162) was 13.6 mPa·s. It also gave a viscosity (313.15 K, x2 = 0.3591) of 12.3 mPa·s, a viscosity (313.15 K, x2 = 0.5077) of 8.21 mPa·s and a viscosity (313.15 K, x2 = 0.5453) of 7.33 mPa·s. For the same compound, the viscosity (313.15 K, x2 = 0.6708) was 4.48 mPa·s, the viscosity (323.15 K, x2 = 0.1664) was 14.3 mPa·s and the viscosity (323.15 K, x2 = 0.2149) was 13 mPa·s. It also gave a viscosity (323.15 K, x2 = 0.3162) of 10.6 mPa·s, a viscosity (323.15 K, x2 = 0.3591) of 9.69 mPa·s and a viscosity (323.15 K, x2 = 0.6708) of 3.86 mPa·s. The viscosity (333.15 K, x2 = 0) was 14.5 mPa·s, the viscosity (333.15 K, x2 = 0.1664) was 11.1 mPa·s and the viscosity (333.15 K, x2 = 0.2149) was 10.3 mPa·s. The viscosity (333.15 K, x2 = 0.3162) was 8.52 mPa·s, the viscosity (333.15 K, x2 = 0.5453) was 4.9 mPa·s and the viscosity (333.15 K, x2 = 0.6708) was 3.11 mPa·s. It also gave a viscosity (343.15 K, x2 = 0) of 11.7 mPa·s, a viscosity (343.15 K, x2 = 0.1664) of 8.96 mPa·s and a viscosity (343.15 K, x2 = 0.2149) of 8.38 mPa·s. The viscosity (343.15 K, x2 = 0.3162) was 6.97 mPa·s, the viscosity (343.15 K, x2 = 0.3591) was 6.41 mPa·s and the viscosity (343.15 K, x2 = 0.5077) was 4.53 mPa·s. For the same compound, the viscosity (343.15 K, x2 = 0.5453) was 4.12 mPa·s, the viscosity (343.15 K, x2 = 0.6708) was 2.65 mPa·s and the viscosity (353.15 K, x2 = 0) was 9.58 mPa·s. It also gave a viscosity (353.15 K, x2 = 0.1664) of 7.38 mPa·s, a viscosity (353.15 K, x2 = 0.2149) of 6.91 mPa·s and a viscosity (353.15 K, x2 = 0.3162) of 5.81 mPa·s. The viscosity (353.15 K, x2 = 0.3591) was 5.37 mPa·s, the viscosity (353.15 K, x2 = 0.5077) was 3.86 mPa·s and the viscosity (353.15 K, x2 = 0.6708) was 2.3 mPa·s.
For `CC[n+]1ccn(C)c1.F[B-](F)(F)F` + CC#N, the viscosity (293.15 K, x2 = 0) was 50.5 mPa·s, the viscosity (293.15 K, x2 = 0.0797) was 37.4 mPa·s and the viscosity (293.15 K, x2 = 0.2803) was 18.1 mPa·s. For the same compound, the viscosity (293.15 K, x2 = 0.3682) was 12.3 mPa·s, the viscosity (293.15 K, x2 = 0.4903) was 7.49 mPa·s and the viscosity (293.15 K, x2 = 0.5753) was 4.83 mPa·s. It also gave a viscosity (293.15 K, x2 = 0.7116) of 2.48 mPa·s, a viscosity (293.15 K, x2 = 0.8301) of 1.21 mPa·s and a viscosity (298.15 K, x2 = 0) of 41.5 mPa·s. The viscosity (298.15 K, x2 = 0.0797) was 31.1 mPa·s, the viscosity (298.15 K, x2 = 0.1787) was 21.4 mPa·s and the viscosity (298.15 K, x2 = 0.2803) was 15.6 mPa·s. For the same compound, the viscosity (298.15 K, x2 = 0.3682) was 10.7 mPa·s, the viscosity (298.15 K, x2 = 0.4903) was 6.64 mPa·s and the viscosity (298.15 K, x2 = 0.5753) was 4.38 mPa·s. It also gave a viscosity (298.15 K, x2 = 0.7116) of 2.29 mPa·s, a viscosity (303.15 K, x2 = 0) of 34.5 mPa·s and a viscosity (303.15 K, x2 = 0.0797) of 26.2 mPa·s. The viscosity (303.15 K, x2 = 0.1787) was 18.3 mPa·s, the viscosity (303.15 K, x2 = 0.2803) was 13.5 mPa·s and the viscosity (303.15 K, x2 = 0.3682) was 9.45 mPa·s. For the same compound, the viscosity (303.15 K, x2 = 0.4903) was 5.94 mPa·s, the viscosity (303.15 K, x2 = 0.5753) was 4 mPa·s and the viscosity (303.15 K, x2 = 0.7116) was 2.11 mPa·s. The viscosity (303.15 K, x2 = 0.8301) was 1.08 mPa·s, the viscosity (313.15 K, x2 = 0) was 24.8 mPa·s and the viscosity (313.15 K, x2 = 0.0797) was 19.4 mPa·s. It also gave a viscosity (313.15 K, x2 = 0.1787) of 14 mPa·s, a viscosity (313.15 K, x2 = 0.4903) of 4.85 mPa·s and a viscosity (313.15 K, x2 = 0.5753) of 3.36 mPa·s. It also gave a viscosity (313.15 K, x2 = 0.7116) of 1.82 mPa·s, a viscosity (313.15 K, x2 = 0.8301) of 0.961 mPa·s and a viscosity (323.15 K, x2 = 0.0797) of 14.9 mPa·s. It also gave a viscosity (323.15 K, x2 = 0.1787) of 11 mPa·s, a viscosity (323.15 K, x2 = 0.4903) of 4.05 mPa·s and a viscosity (323.15 K, x2 = 0.5753) of 2.87 mPa·s. It also gave a viscosity (323.15 K, x2 = 0.8301) of 0.866 mPa·s, a viscosity (333.15 K, x2 = 0) of 14.5 mPa·s and a viscosity (333.15 K, x2 = 0.0797) of 11.8 mPa·s. For the same compound, the viscosity (333.15 K, x2 = 0.1787) was 8.88 mPa·s, the viscosity (333.15 K, x2 = 0.3682) was 5.07 mPa·s and the viscosity (333.15 K, x2 = 0.4903) was 3.44 mPa·s. For the same compound, the viscosity (333.15 K, x2 = 0.5753) was 2.48 mPa·s, the viscosity (333.15 K, x2 = 0.8301) was 0.785 mPa·s and the viscosity (343.15 K, x2 = 0) was 11.7 mPa·s. It also gave a viscosity (343.15 K, x2 = 0.0797) of 9.6 mPa·s, a viscosity (343.15 K, x2 = 0.1787) of 7.29 mPa·s and a viscosity (343.15 K, x2 = 0.2803) of 5.68 mPa·s. For the same compound, the viscosity (343.15 K, x2 = 0.4903) was 2.97 mPa·s and the viscosity (343.15 K, x2 = 0.5753) was 2.17 mPa·s.
`OCCO` + CC[n+]1ccn(C)c1.F[B-](F)(F)F showed a viscosity (303.15 K, x1 = 1) of 14.3 mPa·s, a viscosity (313.15 K, x1 = 1) of 10 mPa·s and a viscosity (333.15 K, x1 = 1) of 5.33 mPa·s. The viscosity (353.15 K, x1 = 1) was 3.24 mPa·s.
`CC#N` + CC[n+]1ccn(C)c1.F[B-](F)(F)F gave a viscosity (293.15 K, x1 = 1) of 0.386 mPa·s, a viscosity (298.15 K, x1 = 1) of 0.37 mPa·s and a viscosity (313.15 K, x1 = 1) of 0.327 mPa·s. The viscosity (323.15 K, x1 = 1) was 0.302 mPa·s, the viscosity (333.15 K, x1 = 1) was 0.281 mPa·s and the viscosity (343.15 K, x1 = 1) was 0.262 mPa·s.
Compound `CS(C)=O` + CC[n+]1ccn(C)c1.F[B-](F)(F)F has a viscosity (293.15 K, x1 = 1) of 2.21 mPa·s, a viscosity (298.15 K, x1 = 1) of 2.01 mPa·s and a viscosity (303.15 K, x1 = 1) of 1.84 mPa·s. It also gave a viscosity (313.15 K, x1 = 1) of 1.56 mPa·s, a viscosity (323.15 K, x1 = 1) of 1.34 mPa·s and a viscosity (333.15 K, x1 = 1) of 1.17 mPa·s. It also gave a viscosity (343.15 K, x1 = 1) of 1.03 mPa·s and a viscosity (353.15 K, x1 = 1) of 0.917 mPa·s.
